Data as given in US7482344B2, “Tricyclic steroid hormone nuclear receptor modulators” (Eli Lilly and Company, priority 2003, dated 2009).

Target: T1, MR (Homo sapiens, UniProt P08235)
T1 sequence (P08235 1-984): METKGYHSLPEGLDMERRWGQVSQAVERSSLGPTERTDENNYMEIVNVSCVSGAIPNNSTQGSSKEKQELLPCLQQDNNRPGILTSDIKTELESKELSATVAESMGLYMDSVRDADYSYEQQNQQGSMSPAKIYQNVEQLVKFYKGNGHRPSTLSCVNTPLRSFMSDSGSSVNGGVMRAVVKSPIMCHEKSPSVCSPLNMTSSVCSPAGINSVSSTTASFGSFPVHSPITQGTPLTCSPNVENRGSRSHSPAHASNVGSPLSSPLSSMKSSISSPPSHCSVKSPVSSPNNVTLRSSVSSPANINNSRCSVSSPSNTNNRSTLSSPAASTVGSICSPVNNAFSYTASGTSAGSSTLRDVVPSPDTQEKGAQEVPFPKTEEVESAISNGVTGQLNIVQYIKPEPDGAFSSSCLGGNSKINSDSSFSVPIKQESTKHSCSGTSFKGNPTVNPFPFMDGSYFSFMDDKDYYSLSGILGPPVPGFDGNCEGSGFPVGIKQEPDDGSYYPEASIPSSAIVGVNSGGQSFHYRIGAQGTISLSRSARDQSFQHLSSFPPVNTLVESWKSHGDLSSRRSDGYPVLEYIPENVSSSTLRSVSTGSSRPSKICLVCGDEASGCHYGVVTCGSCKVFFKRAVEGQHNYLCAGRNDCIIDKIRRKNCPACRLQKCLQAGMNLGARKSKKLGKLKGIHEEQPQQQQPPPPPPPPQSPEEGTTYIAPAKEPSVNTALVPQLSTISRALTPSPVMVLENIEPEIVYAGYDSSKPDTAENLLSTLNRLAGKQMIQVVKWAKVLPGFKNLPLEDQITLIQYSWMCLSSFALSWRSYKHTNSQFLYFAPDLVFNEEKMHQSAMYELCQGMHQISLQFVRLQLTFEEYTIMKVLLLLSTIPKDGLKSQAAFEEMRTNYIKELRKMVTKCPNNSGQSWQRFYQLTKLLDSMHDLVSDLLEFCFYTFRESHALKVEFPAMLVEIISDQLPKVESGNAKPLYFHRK
Test: Mineralocorticoid Receptor Binding Assay (Method 1), [3H]-aldosterone competition
Set-up: The full length human MR gene is cloned from a human kidney or human brain cDNA library; made in house; host or cells: SF9 insect cells (pAcHLT baculovirus transfer vector)
Settings: human MR expressed in Sf9 cells, 0.5 nM [3H]-aldosterone
Procedure: Mineralocorticoid Receptor Binding Assay (Method 1):
The full length human MR gene is cloned from a human kidney or human brain cDNA library. Briefly, using synthetic oligonucleotide primers (Eli Lilly and Company, Indianapolis) directed to nucleotides 20-54 and 3700-3666 of the human MR, polymerase chain reaction (PCR) is performed under standard conditions using a human cDNA library. The PCR reaction is performed in a final volume of 50 μl containing about 1μl of a 50× stock solution of polymerase; about 1 μl of a 50× stock solution of dNTP; about 5μl of an appropriate PCR buffer; about 1 μl of each primer; about 5 μl of a H. kidney or H. brain cDNA library; and about 36 μl of water. The reaction is allowed to denature for about 30 seconds at 95 degrees Celsius, anneal for about 30 seconds at 55 degrees Celsius, and extend for about 5 minutes at 72 degrees Celsius, the sequence being repeated for a total of about 35 cycles. The desired PCR product (3.68 Kb) is confirmed by gel electrophoresis and subsequently cut from the gel and stored at about −20 degrees Celsius until extraction. To extract the cDNA product from the agarose gel, the QIAEX II Gel Extraction protocol (QIAGEN, Inc.) is employed according to the manufacturer's instructions. Following extraction, the MR cDNA is cloned into an appropriate cloning vector (Zero Blunt TOPO PCR Cloning Kit (Invitrogen, Inc.) and a pAcHLT-baculovirus transfer vector (B.D./Pharminogen), then expressed in SF9 insect cells, essentially according to manufacturer's instructions. Sf9 cells are grown at a scale where gram quantity cell pellets are obtained for subsequent use in the MR binding assay. Harvested cell pellets are lysed by repeated freeze-thaw cycles (about 4) in a suitable lysis buffer then centrifuged at about 1×10^3G (with the supernatant being saved for future assays).
MR binding assays are performed in a final total volume of about 250 μl containing about 20-25 μg of protein and 0.5 nM of [^3H]-aldosterone plus varying concentrations of test compound or vehicle. The assay binding buffer consists of 30 mM sodium molybdate, 30 mM of TRIS-HCl, 5 mM sodium phosphate, 5 mM sodium pyrophosphate, and about 10% glycerol, pH=7.5.
Briefly, assays are prepared at RT in 96-well Falcon 3072 plates, each well containing 210 μof binding buffer, 10 μl of […], 10 μl of test compound/vehicle, and 20 μl of the resuspended receptor protein extract. Incubations are carried out at 4 degrees Celsius with shaking for about 16 hours. 200 μl aliquots of each incubation are filtered onto Millipore HA 0.45 micron 96-well filter plates, pre-moistened with cold 30 mM TRIS-HCl. The filter plates are suctioned dry with vacuum and immediately washed 3× with cold 30 mM TRIS-HCl. The plates are then punched out and the amount of receptor-ligand complex is determined by liquid scintillation counting using 4 ml of Ready Protein Plus™ liquid scintillation cocktail.

| Ki [nM] | SMILES |
| --- | --- |
| < 500 | O=c1[nH]c2cc(C=C3c4ccccc4Sc4ccccc43)ccc2s1 [Example 12] |
| < 500 | CC(=C1c2ccccc2Sc2ccccc21)c1cccc(NS(C)(=O)=O)c1 [Example 4, 9-[1-(3-methylsulfonoylaminophenyl)ethylene] thioxanthine] |
| < 500 | CC(=C1c2ccccc2Sc2ccccc21)c1cccc(N)c1 [Example 6] |
| < 500 | Oc1ccccc1C=C1c2ccccc2Sc2ccccc21 [Example 15] |
| < 500 | Nc1cccc(C=C2c3ccccc3Sc3ccccc32)c1 [Example 9] |
| < 500 | CN1CCN(CCn2c(=O)[nH]c3cc(C=C4c5ccccc5Sc5ccccc54)ccc32)CC1 [Example 14] |

The next lines start with the compound.

| SMILES | Ki [nM] |
| --- | --- |
| CS(=O)(=O)Nc1cccc(C=C2c3ccccc3Sc3ccccc32)c1 [Example 8] | < 500 |
| O=c1[nH]c2ccc(C=C3c4ccccc4Sc4ccccc43)cc2[nH]1 [Example 10] | < 500 |
| O=c1[nH]c2cc(C=C3c4ccccc4Sc4ccccc43)ccc2n1CCN1CCOCC1 [Example 13] | < 500 |
| O=c1[nH]c2ccc(C=C3c4ccc(F)cc4Sc4cc(F)ccc43)cc2[nH]1 [Example 5, 5-(3,6-Difluoro-thioxanthen-9-ylidenemethyl)-1,3-dihydro-benzoimidazol-2-one] | < 500 |
| O=c1[nH]c2cc(C=C3c4ccccc4Sc4ccccc43)ccc2o1 [Example 11] | < 500 |
